According to PMC9986244, “Connection between MHC class II binding and aggregation propensity: The antigenic peptide 10 of Paracoccidioides brasiliensis as a benchmark study” (Computational and Structural Biotechnology Journal, 2023):
Like-named read-outs stand apart in the source and are kept apart here.

Target: MHC-II allele DRB1*01:01 (Homo sapiens, UniProt P01903+P01911, A100R/D57E/F55L/F60I/F76Y/I96L/L162R/M171V/P40L/Q125E/R42F/V115G/Y59C)
Assay type: binding
[1] = DRB1*01:01, SF-high / SF-low assigned from REVEAL scores

Sequence | Affinity for MHC-II (subfamily by experimental affinity scores) [1] | Affinity for MHC-II (subfamily by experimental affinity scores)
QGLKAIHTLAIRYAN [Peptide V10] | high affinity | 
QGLPAIHTLAIRYAN [Peptide V7] | low affinity | 
QMLHAIHTLAIRYAN [Peptide V16] | high affinity | 
QNHHAIHTLAIRYAN [Peptide V15] | low affinity | 
QPFPDIHTLAIRYAN [Peptide V3] | low affinity | 
QPFQDIHTLAIRYAN [Peptide V5] | low affinity | 
QTLIAIHTLAIRYAN [Peptide P10] |  | high affinity
QTLLDIHTLAIRYAN [Peptide V1] | low affinity | 
QTLQAIHTLAIRLAN [Peptide V11] | high affinity | 
QTLTAIHTLAIRYAN [Peptide V6] | high affinity | 
QTYHAIHTLAIRYAN [Peptide V14] | high affinity | 
